Results: patent US11236059B2, “Targeted cytotoxic ratjadone derivatives and conjugates thereof” (HELMHOLTZ-ZENTRUM FUER INFEKTIONSFORSCHUNG GMBH, priority 2017, dated 2022)
pIC50: −log10 of the molar value. Read-outs that look alike come from different tables or passages of the source.

Columns and labels:
Type in all cases: cell-based
[1] = system: A549 (DSMZ ACC 107) cells; assay: cells; settings: growth inhibition, 5 days of incubation, MTT assay; read-out: IC50 [nM] A-549 (Gonadoliberin-Ratjadone Conjugates)
Experimental: (§1) 60 μL of serial dilutions of the test compound were given to 120 μL of suspended cells (50.000/mL) in wells of 96-well plates. After 5 days of incubation growth inhibition (IC50) was determined using an MTT assay.^[64]

[2] = system: MCF-7 (DSMZ ACC 115) cells; assay: cells
Experimental: as §1

[3] = system: SKOV-3 (DSMZ ATCC HTB 77) cells; assay: cells
Experimental: as §1

CRM1 = target: T1, CRM1 (Homo sapiens, UniProt O14980); assay: Monitoring export inhibitory activity (translocation biosensor, HeLaRevBio cells); settings: for IC50: HeLa cells stably expressing translocation biosensor, 1h of incubation, read-out: IC50 [nM] CRM1 (nuclear export inhibition)
T1 construct: HeLa cells stably expressing a fluorescent translocation biosensor (HeLaRevBio); endogenous in cells; host or cells: HeLa (HeLaRevBio in A7; HeLa in A8)
T1 sequence (O14980 whole entry): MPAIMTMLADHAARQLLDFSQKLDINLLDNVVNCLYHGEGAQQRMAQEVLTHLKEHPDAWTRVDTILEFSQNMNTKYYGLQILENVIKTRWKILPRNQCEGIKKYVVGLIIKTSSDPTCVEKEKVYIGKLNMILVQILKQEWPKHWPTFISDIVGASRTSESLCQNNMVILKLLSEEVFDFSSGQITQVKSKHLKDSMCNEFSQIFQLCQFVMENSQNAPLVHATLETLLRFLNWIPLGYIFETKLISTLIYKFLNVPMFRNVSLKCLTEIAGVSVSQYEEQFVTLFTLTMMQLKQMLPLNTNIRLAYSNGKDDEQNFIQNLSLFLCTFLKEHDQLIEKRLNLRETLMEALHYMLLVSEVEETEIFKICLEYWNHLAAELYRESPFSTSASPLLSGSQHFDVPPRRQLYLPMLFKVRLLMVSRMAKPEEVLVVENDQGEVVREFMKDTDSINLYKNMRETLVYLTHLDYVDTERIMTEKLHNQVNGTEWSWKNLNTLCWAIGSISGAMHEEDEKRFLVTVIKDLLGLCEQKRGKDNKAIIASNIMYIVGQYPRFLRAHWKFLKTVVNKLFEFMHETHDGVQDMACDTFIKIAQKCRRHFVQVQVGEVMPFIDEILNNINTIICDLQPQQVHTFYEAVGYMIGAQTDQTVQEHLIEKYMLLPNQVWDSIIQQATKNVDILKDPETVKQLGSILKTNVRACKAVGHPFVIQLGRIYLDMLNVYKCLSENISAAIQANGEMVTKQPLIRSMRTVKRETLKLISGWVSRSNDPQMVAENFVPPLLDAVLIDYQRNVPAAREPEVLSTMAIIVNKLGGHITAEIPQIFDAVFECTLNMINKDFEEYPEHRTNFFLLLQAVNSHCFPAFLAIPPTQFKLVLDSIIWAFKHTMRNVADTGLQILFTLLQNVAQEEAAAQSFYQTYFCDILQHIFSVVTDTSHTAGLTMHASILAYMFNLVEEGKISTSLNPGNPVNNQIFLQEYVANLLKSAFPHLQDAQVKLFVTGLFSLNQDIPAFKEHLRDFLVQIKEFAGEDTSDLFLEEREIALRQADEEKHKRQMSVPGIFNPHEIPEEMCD
Experimental: Export inhibitory ability of compounds was evaluated with the translocation biosensor system. This cellular assay depends on a recombinantly expressed fusion protein consisting of a nuclear localization signal (SV40-NLS), glutathione S-transferase (GST), green fluorescent protein (GFP) and a nuclear export signal (HIV1-RevNES). Due to the two transport signals (NLS/NES), the biosensor is permanently shuttling between nucleus and cytoplasm but resides prominently in the cytoplasm due to a comparatively stronger NES. Export inhibiting compound induce a nuclear accumulation of the GFP-signal^[65,66] Cell lines were maintained as recommended by the American Type Culture Collection in DMEM containing 5% glutamine (Thermo Fisher Scientific, Waltham, USA) supplemented with 10% FBS (Thermo Fisher Scientific, Waltham, USA). For quantifying the nuclear export inhibitory effect, HeLa cells stably expressing a fluorescent translocation biosensor (HeLaRevBio)^[67] were seeded into black 96 well μclear plates (Greiner, Germany). They next day compounds were added covering an appropriate concentration range. After 1h of incubation, cells were fixed in 4% PFA for 10 min and permeabilized with 0.1% Triton X 100 in PBS for 5 min. After washing with PBS nuclei were labeled with Hoechst H33342 (30 min 10 μg/ml). The intracellular distribution of the biosensor-dependent GFP signal was quantitatively evaluated with the high content imaging system ImageXpress MicroXLS (Molecular Devices, Sunnyvale, USA). By using the translocation enhanced application module (Molecular Devices, Sunnyvale, USA) the GFP-intensity was quantified in the cytoplasm and nuclear region. As final readout the difference of Mean Inner and Mean Outer Intensity was calculated. IC50s of nuclear export inhibition were calculated using Sigma Plot with four parameter logistics curve regression (Systat Software GmbH, Erkrath, Germany). […] The following day compounds were added at 125 nM final concentration.

[4] = system: KB 3.1 (DSMZ ACC 158) cells; assay: Cell proliferation assay under folate free conditions; settings: RPMI-medium without folic acid + 10% dialyzed fetal calf serum; MTT assay after 1, 2 and 5 days (day of the value not given); read-out: IC50 [nM] KB 3.1 (Folate-Ratjadone Conjugates)
Experimental: KB 3.1 (DSMZ ACC 158) cells were cultivated at 37° C. and 10% C002 in RMPI-medium without folic acid (Gibco) with 10% fetal calf serum (Gibco). 120 μL of suspended cells (100.000/mL) were seeded in wells of 96-well plates and after 24 h at 37° C. and 10% CO2 the medium was removed, the cells were washed with PBS and RPMI-medium without folic acid (Gibco)+10% dialyzed fetal calf serum (Sigma) were added to the cells, before after additional 24 h at 37° C. and 10% C002 60 μL of serial dilutions of the test compound were given to cells. After 1, 2 and 5 days of incubation growth inhibition (IC50) was determined using an MTT assay.^[64]

| Structure (SMILES) | IC50 [1] | IC50 [4] | also measured |
| --- | --- | --- | --- |
| C/C=C/[C@@H]1O[C@H]([C@@H](/C=C/C=C(\C)C[C@@H](C)/C=C(C)\C=C\[C@H]2CC=CC(=O)O2)NC(=O)OCc2ccc(NC(=O)[C@H](CCCNC(N)=O)NC(=O)[C@@H](NC(=O)OC[C@@H]3[C@@H]4CCc5nnn(CCC[C@@H](NC(=O)[C@H](Cc6ccc(O)cc6)NC(=O)[C@H](CO)NC(=O)[C@H](Cc6c[nH]c7ccccc67)NC(=O)[C@H](Cc6c[nH]cn6)NC(=O)[C@@H]6CCC(=O)N6)C(=O)N[C@@H](CC(C)C)C(=O)N[C@@H](CCCNC(=N)N)C(=O)N6CCC[C@H]6C(=O)NNC(N)=O)c5CC[C@@H]43)C(C)C)cc2)C[C@@H](O)[C@@H]1C | 12.8 nM | – | – |
| C/C=C/[C@@H]1O[C@H]([C@@H](/C=C/C=C(\C)C[C@@H](C)/C=C(C)\C=C\[C@H]2CC=CC(=O)O2)NC(=O)OCc2ccc(NC(=O)[C@H](CCCNC(N)=O)NC(=O)[C@@H](NC(=O)OC[C@@H]3[C@@H]4CCc5nnn(CCC[C@@H](NC(=O)[C@H](Cc6ccc(O)cc6)NC(=O)[C@H](CO)NC(=O)[C@H](Cc6c[nH]c7ccccc67)NC(=O)[C@H](Cc6c[nH]cn6)NC(=O)[C@@H]6CCC(=O)N6)C(=O)N[C@@H](CC(C)C)C(=O)N[C@@H](CCCNC(=N)N)C(=O)N6CCC[C@H]6C(=O)NCC(N)=O)c5CC[C@@H]43)C(C)C)cc2)C[C@@H](O)[C@@H]1C | 23 nM | – | – |
| C/C=C/[C@@H]1O[C@H]([C@@H](/C=C/C=C(\C)C[C@@H](C)/C=C(C)\C=C\[C@H]2CC=CC(=O)O2)NC(=O)OCc2ccc(NC(=O)[C@H](CCCNC(N)=O)NC(=O)[C@@H](NC(=O)OCCc3cn(CCC[C@H](NC(=O)[C@H](Cc4ccc(O)cc4)NC(=O)[C@H](CO)NC(=O)[C@H](Cc4c[nH]c5ccccc45)NC(=O)[C@H](Cc4c[nH]cn4)NC(=O)[C@@H]4CCC(=O)N4)C(=O)N[C@@H](CC(C)C)C(=O)N[C@@H](CCCNC(=N)N)C(=O)N4CCC[C@H]4C(=O)NCC(N)=O)nn3)C(C)C)cc2)C[C@@H](O)[C@@H]1C | 1200 nM | – | – |
| C/C=C/[C@@H]1O[C@H]([C@H](N)/C=C/C=C(\C)C[C@@H](C)/C=C(C)\C=C\[C@H]2CC=CC(=O)O2)C[C@@H](O)[C@@H]1C [16R-Amino-Ratjadone 11, (R)-6-((1E,3Z,5R,7E,9E,11R)-11-amino-11-((2S,4R,5S,6S)-4-hydroxy-5-methyl-6-((E)-prop-1-en-1-yl)tetrahydro-2H-pyran-2-yl)-3,5,7-trimethylundeca-1,3,7,9-tetra-en-1-yl)-5,6-dihydro-2H-pyran-2-one] | – | – | IC50 ([2]; Homo sapiens, MCF7, 120 h, read-out: IC50 [nM] MCF-7, growth inhibition, 5 days of incubation, MTT assay): 0.26 nM; IC50 ([2]; read-out: IC50 [nM] MCF-7, growth inhibition, 5 days of incubation, MTT assay): 0.36 nM; IC50 ([3]; Homo sapiens, SK-OV-3, 120 h, read-out: IC50 [nM] SK-OV-3, growth inhibition, 5 days of incubation, MTT assay): 0.61 nM; IC50 ([3]; read-out: IC50 [nM] SK-OV-3, growth inhibition, 5 days of incubation, MTT assay): 0.81 nM; IC50 (CRM1): 2.7 nM |
| C/C=C/[C@@H]1O[C@H]([C@@H](N)/C=C/C=C(\C)C[C@@H](C)/C=C(C)\C=C\[C@H]2CC=CC(=O)O2)C[C@@H](O)[C@@H]1C [16S-Amino-Ratjadone 12, (R)-6-((1E,3Z,5R,7E,9E,11 S)-11-amino-11-((2S,4R,5S,6S)-4-hydroxy-5-methyl-6-((E)-prop-1-en-1-yl)tetrahydro-2H-pyran-2-yl)-3,5,7-trimethylun-deca-1,3,7,9-tetraen-1-yl)-5,6-dihydro-2H-pyran-2-one] | – | – | IC50 (CRM1): 2.8 nM |
| C/C=C/[C@@H]1O[C@H](C(/C=C/C=C(\C)C[C@@H](C)/C=C\C=C(/C)[C@H]2CC=CC(=O)O2)NC(=O)OCc2ccc(NC(=O)[C@H](CCCNC(N)=O)NC(=O)[C@@H](NC(=O)OC[C@@H]3[C@@H]4CCc5nnn(-c6ccc(C(=O)NCCCC[C@H](NC(=O)[C@H](CC(=O)O)NC(=O)[C@H](CC(=O)O)NC(=O)[C@H](CCCCNC(=O)c7ccc(-n8nnc9c8CC[C@H]8[C@@H](CC9)[C@H]8COC(=O)N[C@H](C(=O)N[C@@H](CCCNC(N)=O)C(=O)Nc8ccc(COC(=O)NC(/C=C/C=C(\C)C[C@@H](C)/C=C\C=C(/C)[C@H]9CC=CC(=O)O9)[C@@H]9C[C@@H](O)[C@H](C)[C@H](/C=C/C)O9)cc8)C(C)C)cc7)NC(=O)[C@@H](CC(=O)O)NC(=O)[C@@H](CC(=O)O)NC(=O)CC[C@H](NC(=O)c7ccc(NCc8cnc9nc(N)nc(O)c9n8)cc7)C(=O)O)C(=O)O)cc6)c5CC[C@@H]43)C(C)C)cc2)C[C@@H](O)[C@@H]1C (stereo partly drawn) [FA-4-(Val-Cit-PABA-16R-Aminoratjadone)2] | – | 148 nM | – |
| C/C=C/[C@@H]1O[C@H]([C@@H](/C=C/C=C(\C)C[C@@H](C)/C=C(C)\C=C\[C@H]2CC=CC(=O)O2)NC(=O)OCCc2cn(CCC[C@H](NC(=O)[C@@H](CC(=O)O)NC(=O)[C@@H](CC(=O)O)NC(=O)[C@@H](CC(=O)O)NC(=O)[C@@H](CC(=O)O)NC(=O)[C@@H](CC(=O)O)NC(=O)CC[C@H](NC(=O)c3ccc(NCc4cnc5nc(N)nc(O)c5n4)cc3)C(=O)O)C(=O)O)nn2)C[C@@H](O)[C@@H]1C [FA-5-16R-Aminoratjadone] | – | 50.3 nM | – |
| C/C=C/[C@@H]1O[C@H]([C@@H](/C=C/C=C(\C)C[C@@H](C)/C=C(C)\C=C\[C@H]2CC=CC(=O)O2)NC(=O)OCCc2cn(-c3ccc(C(=O)NCCCC[C@H](NC(=O)CC[C@H](NC(=O)CC[C@H](NC(=O)c4ccc(NCc5cnc6nc(N)nc(O)c6n5)cc4)C(=O)O)C(=O)O)C(=O)O)cc3)nn2)C[C@@H](O)[C@@H]1C [FA-6-16R-Aminoratjadone, (3S,8S,13S)-1-(4-(((2-amino-4-hydroxypteridin-6-yl)methyl)amino)phenyl)-19-(4-(4-(2-((((1R,2E,4E,7R,8Z,10E)-1-((2S,4R,5S,6S)-4-hydroxy-5-methyl-6-((E)-prop-1-en-1-yl)tetrahydro-2H-pyran-2-yl)-5,7,9-trimethyl-1-((R)-6-oxo-3,6-dihydro-2H-pyran-2-yl)undeca-2,4,8,10-tetraen-1-yl)carbamoyl)oxy)ethyl)-1H-1,2,3-triazol-1-yl)phenyl)-1,6,11,19-tetraoxo-2,7,12,18-tetraazanonadecane-3,8,13-tricarboxylic acid] | – | 150 nM | – |
| C/C=C/[C@@H]1O[C@H]([C@@H](/C=C/C=C(\C)C[C@@H](C)/C=C(C)\C=C\[C@H]2CC=CC(=O)O2)NC(=O)OCc2ccc(NC(=O)[C@H](CCCNC(N)=O)NC(=O)[C@@H](NC(=O)OC[C@@H]3[C@@H]4CCc5nnn(-c6ccc(C(=O)NCCCC[C@H](NC(=O)CC[C@H](NC(=O)CC[C@H](NC(=O)c7ccc(NCc8cnc9nc(N)nc(O)c9n8)cc7)C(=O)O)C(=O)O)C(=O)O)cc6)c5CC[C@@H]43)C(C)C)cc2)C[C@@H](O)[C@@H]1C [FA-6-Val-Cit-PABA-16R-Aminoratjadone] | – | 223 nM | – |
| C/C=C/[C@@H]1O[C@H]([C@@H](/C=C/C=C(\C)C[C@@H](C)/C=C(C)\C=C\[C@H]2CC=CC(=O)O2)NC(=O)OCCc2cn(CCC[C@H](NC(=O)[C@H](Cc3ccc(O)cc3)NC(=O)[C@H](CO)NC(=O)[C@H](Cc3c[nH]c4ccccc34)NC(=O)[C@H](Cc3c[nH]cn3)NC(=O)[C@@H]3CCC(=O)N3)C(=O)N[C@@H](CC(C)C)C(=O)N[C@@H](CCCNC(=N)N)C(=O)N3CCC[C@H]3C(=O)NCC(N)=O)nn2)C[C@@H](O)[C@@H]1C [L-Orn-LHRH-16R-Aminoratjadone] | 1600 nM | – | pIC50 (CRM1): 5.97 |
| C/C=C/[C@@H]1O[C@H]([C@H](O)/C=C/C=C(\C)C[C@@H](C)/C=C(C)\C=C\[C@H]2CC=CC(=O)O2)C[C@@H](O)[C@@H]1C [Ratjadone A 1, (R)-6-((1E,3Z,5R,7E,9E,11R)-11-hydroxy-11-((2S,4R,5S,6S)-4-hydroxy-5-methyl-6-((E)-prop-1-en-1-yl)tetrahydro-2H-pyran-2-yl)-3,5,7-trimethylundeca-1,3,7,9-tetraen-1-yl)-5,6-dihydro-2H-pyran-2-one, reference compound] | – | – | IC50 (CRM1): 1.2 nM |
